Legend:
[1] = Aminoglycoside cytotoxicity in HK-2 cells (Alamar Blue); assay type: cell-based, Human; conditions: human
Description: (§1) Human kidney cortex proximal tubule cells (HK-2) were purchased from ATCC and maintained according to manufacturer's recommendations in Keratinocyte Serum-Free Media (SFM; Invitrogen), with 0.05 mg/ml bovine pituitary extract and 5 ng/ml of Epidermal growth factor.
(§2) Solutions of aminoglycosides at a concentration of 50 mg/mL (both control and novel test compounds) were prepared in sterile deionized water. Before treatment of cells, the concentrated drug solutions were diluted to the appropriate concentration in Keratinocyte SFM {20, 10, 5, 2.5, 1.25, 0.6, 0.3, and 0 mM}. Pentamidine was used as a positive control.
(§3) HK-2 cells were seeded at 2.5*10^4 cells/well density in 96-well plates in Keratinocyte SFM and placed in a 37° C. tissue culture CO2 incubator. […]. Each treatment was performed in duplicate. […] Drug solutions were aspirated and replaced with 0.1 ml of 5% Alamar Blue (Abd Serotec) cell proliferation reagent in Keratinocyte SFM. Plates were read on a Molecular Devices Gemini EM fluorometer pre-warmed at 37° C. at […]. Plates were read at 0 and 4 hrs, and were incubated at 37° C. in a CO2 incubator in between reads. The fluorescence signal at the 0 h timepoint was subtracted from that at 4 h to account for background fluorescence.
(§4) The cytotoxicity data were reported as the amount of drug producing a 50% decrease in Alamar Blue signal relative to the no drug treatment control.

ACM1005 ATCC 19004 = test: MIC, broth microdilution; assay type: cell-based, Acinetobacter baumannii; conditions: Table 4
Method in brief: (§5)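 Broth microdilution per CLSI guidelines: compounds serially diluted 2-fold in cation-adjusted Mueller Hinton broth, inoculum 5×10^5 CFU/ml from overnight colonies, 18 hours at 35° C. MIC read by turbidity at 600 nm and confirmed visually.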

[2] = test system: Pseudomonas aeruginosa (ATCC 27853); test: MIC, broth microdilution
EC1002 aph(3′)-IV = test: organism not typed; assay type: cell-based
Method in brief: (§6)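 Broth microdilution per CLSI M7-A7 in cation-adjusted Mueller Hinton broth, 2-fold serial dilutions, inoculum 5×10^5 CFU/ml from overnight colonies. Incubated 18 hours at 35° C. MIC read as turbidity at 600 nm, confirmed visually.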

ACM1006 acc(6′)-Ib = test: microbe, parasite or virus in culture; assay type: cell-based, Acinetobacter baumannii; conditions: Table 4
Method in brief: as §5

[3] = test system: Human kidney cortex proximal tubule cells (HK-2); test: Aminoglycoside cytotoxicity in HK-2 cells (Alamar Blue); assay type: cell-based; conditions: HK-2 cells, 50% decrease in Alamar Blue signal; read-out: IC50 @ 24 hrs
Description: as §1, §2, §3, §4

ECM6003 rmtB = test: microbe, parasite or virus in culture; assay type: cell-based, Escherichia coli; conditions: Table 3
Method in brief: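 Broth microdilution per CLSI M7-A7 in cation-adjusted Mueller Hinton broth with 2-fold serial dilutions and 5×10^5 CFU/ml inoculum. Incubated 18 hours at 35 °C; MIC read by turbidity at 600 nm and confirmed visually.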

ECM6009 aac(3)-II = test: microbe, parasite or virus in culture; assay type: cell-based, Escherichia coli
Method in brief: as §6

ECM6011 aph(3′)-I = test: microbe, parasite or virus in culture; assay type: cell-based, Escherichia coli
Method in brief: as §6

ECM6010 ant(2″)-I = test: microbe, parasite or virus in culture; assay type: cell-based, Escherichia coli
Method in brief: as §6

ECM6006 aph(3′)-III = test: microbe, parasite or virus in culture; assay type: cell-based, Escherichia coli
Method in brief: as §6

[4] = test system: Klebsiella pneumonia (ATCC 43816); test: MIC, broth microdilution; conditions: QC strain, Table 2
[5] = test system: Escherichia coli (ATCC 25922); test: MIC, broth microdilution
PAM3072 aac(6′)-II = test: microbe, parasite or virus in culture; assay type: cell-based, Pseudomonas aeruginosa; conditions: Table 5
Method in brief: as §5

PAM3073 aac(6′)-I = test: microbe, parasite or virus in culture; assay type: cell-based, Pseudomonas aeruginosa; conditions: Table 5
Method in brief: as §5

[6] = test system: ECM6007 aac(6′) + aph(2″); test: microbe, parasite or virus in culture; assay type: cell-based, Escherichia coli; conditions: Table 4
Method in brief: as §5

EC1001 acc(6′)-Ib = test: microbe, parasite or virus in culture; assay type: cell-based, Escherichia coli; conditions: Table 4
Method in brief: as §5

[7] = test system: Staphylococcus aureus (ATCC 29213); test: MIC, broth microdilution
[8] = test system: Acinetobacter baumannii (ATCC 19606); test: MIC, broth microdilution; conditions: QC strain, Table 2
Sa 287 aac(6′) + aph(2″) = test: microbe, parasite or virus in culture; assay type: cell-based, Staphylococcus aureus; conditions: Table 5
Method in brief: as §5

**Q.** With `NCC[C@H](O)C(=O)N[C@@H]1C[C@H](N)[C@@H](O[C@H]2O[C@H](CN)CC[C@H]2N)[C@H](O)[C@H]1O[C@H]1O[C@H](CO)[C@@H](O)[C@H](N)[C@H]1O` [Arbekacin, reference compound] as the compound, how does the IC50 at 24 h [1] read?
**A.** > 20 mM

**Q.** With Gentamicin [reference compound] as the compound, how does the “Compound MIC on Bacterial Strains: Acinetobacter baumannii ACM1005 ATCC 19004” value (ACM1005 ATCC 19004) read?
**A.** A (MIC of 1 μg/ml or less)

**Q.** And the “Compound MIC on Bacterial Strains: P. aeruginosa ATCC 27853” value ([2]; QC strain, Table 2)?
**A.** A (MIC of 1 μg/ml or less)

**Q.** What about the “Compound MIC on Bacterial Strains: Pseudomonas aeruginosa PAM3034 ATCC 27853” value ([2]; Table 5) of the same compound?
**A.** A (MIC of 1 μg/ml or less)

**Q.** And the “Compound MIC on Bacterial Strains: EC1002 aph(3′)-IV” value (EC1002 aph(3′)-IV)?
**A.** B (key: A: MIC of 1 μg/ml or less; B: MIC of greater than 1 μg/ml to 8 μg/ml; MIC of greater than 8 μg/ml)

**Q.** What about the “Compound MIC on Bacterial Strains: Acinetobacter baumannii ACM1006 acc(6′)-Ib” value (ACM1006 acc(6′)-Ib) of the same compound?
**A.** B (MIC of greater than 1 μg/ml to 8 μg/ml)

**Q.** What about the IC50 [3] of the same compound?
**A.** > 20 mM

**Q.** And the “Compound MIC on Bacterial Strains: ECM6003 rmtB” value (ECM6003 rmtB)?
**A.** C (MIC of greater than 8 μg/ml)

**Q.** And the “Compound MIC on Bacterial Strains: ECM6009 aac(3)-II” value (ECM6009 aac(3)-II)?
**A.** C (key: A: MIC of 1 μg/ml or less; B: MIC of greater than 1 μg/ml to 8 μg/ml; MIC of greater than 8 μg/ml)

**Q.** What about the “Compound MIC on Bacterial Strains: ECM6011 aph(3′)-I” value (ECM6011 aph(3′)-I) of the same compound?
**A.** B (key: A: MIC of 1 μg/ml or less; B: MIC of greater than 1 μg/ml to 8 μg/ml; MIC of greater than 8 μg/ml)

**Q.** What about the “Compound MIC on Bacterial Strains: ECM6010 ant(2″)-I” value (ECM6010 ant(2″)-I) of the same compound?
**A.** C (key: A: MIC of 1 μg/ml or less; B: MIC of greater than 1 μg/ml to 8 μg/ml; MIC of greater than 8 μg/ml)

**Q.** And the “Compound MIC on Bacterial Strains: ECM6006 aph(3′)-III” value (ECM6006 aph(3′)-III)?
**A.** B (key: A: MIC of 1 μg/ml or less; B: MIC of greater than 1 μg/ml to 8 μg/ml; MIC of greater than 8 μg/ml)

**Q.** What about the “Compound MIC on Bacterial Strains: K. pneumonia ATCC 43816” value [4] of the same compound?
**A.** A (MIC of 1 μg/ml or less)

**Q.** And the “Compound MIC on Bacterial Strains: E. coli ATCC 25922” value ([5]; QC strain, Table 2)?
**A.** A (MIC of 1 μg/ml or less)

**Q.** What about the “Compound MIC on Bacterial Strains: ECM6000 ATCC 25922” value ([5]; Table 3) of the same compound?
**A.** A (MIC of 1 μg/ml or less)

**Q.** And the “Compound MIC on Bacterial Strains: Escherichia coli ECM6000 ATCC 25922” value ([5]; Table 4)?
**A.** A (MIC of 1 μg/ml or less)

**Q.** And the “Compound MIC on Bacterial Strains: Pseudomonas aeruginosa PAM3072 aac(6′)-II” value (PAM3072 aac(6′)-II)?
**A.** C (MIC of greater than 8 μg/ml)

**Q.** And the “Compound MIC on Bacterial Strains: Pseudomonas aeruginosa PAM3073 aac(6′)-I” value (PAM3073 aac(6′)-I)?
**A.** B (MIC of greater than 1 μg/ml to 8 μg/ml)

**Q.** What about the “Compound MIC on Bacterial Strains: Escherichia coli ECM6007 aac(6′) + aph(2″)” value [6] of the same compound?
**A.** B (MIC of greater than 1 μg/ml to 8 μg/ml)

**Q.** What about the “Compound MIC on Bacterial Strains: Escherichia coli EC1001 acc(6′)-Ib” value (EC1001 acc(6′)-Ib) of the same compound?
**A.** B (MIC of greater than 1 μg/ml to 8 μg/ml)

**Q.** What about the “Compound MIC on Bacterial Strains: S. aureus ATCC 29213” value ([7]; QC strain, Table 2) of the same compound?
**A.** A (MIC of 1 μg/ml or less)

**Q.** What about the “Compound MIC on Bacterial Strains: Staphylococcus aureus SAM1000 ATCC 29213” value ([7]; Table 5) of the same compound?
**A.** A (MIC of 1 μg/ml or less)

**Q.** And the “Compound MIC on Bacterial Strains: A. baumannii ATCC 19606” value [8]?
**A.** C (MIC of greater than 8 μg/ml)

**Q.** What about the “Compound MIC on Bacterial Strains: Staphylococcus aureus Sa 287 aac(6′) + aph(2″)” value (Sa 287 aac(6′) + aph(2″)) of the same compound?
**A.** C (MIC of greater than 8 μg/ml)
